Measurements: ChEMBL document CHEMBL1123229, “A molecular mechanics approach to the understanding of presynaptic selectivity for centrally acting dopamine receptor agonists of the phenylpiperidine series” (1986)
Activity calls are given as the source filed them. The rule behind the calls is not given here.

Legend:
Rattus norvegicus [1] = organism: Rattus norvegicus; assay: Dose required for postsynaptic agonism using motor activity test in reserpinized rats; assay type: functional
Rattus norvegicus [2] = organism: Rattus norvegicus; assay: Postsynaptic agonistic activity using motor activity test in reserpinized rats per 30 min; assay type: functional
[3] = target: T1, Dopamine receptor (Rattus norvegicus) (UniProt P25115+P19020+P30729+P18901+P61169); assay: Compound was tested or presynaptic agonistic activity against dopamine receptor in striatum; I= Inactive; assay type: functional, tissue-based
[4] = target: T1, Dopamine receptor (Rattus norvegicus); assay: Compound was tested for presynaptic agonistic activity against dopamine receptor in limbic system; I= Inactive; assay type: functional, tissue-based
Rattus norvegicus [5] = organism: Rattus norvegicus; assay: Compound was evaluated for postsynaptic agonistic activity using motor activity test in reserpinized rats per 30 min; ns= Not significant; assay type: functional
[6] = target: T1, Dopamine receptor (Rattus norvegicus); assay: Compound was tested or presynaptic agonistic activity against dopamine receptor in striatum; Inactive; assay type: functional, tissue-based
Rattus norvegicus [7] = assay: Dose required for postsynaptic agonism using motor activity test in reserpinized rats; I= Inactive at 2 umol/kg; assay type: functional, organism-based
[8] = target: T1, Dopamine receptor (Rattus norvegicus); assay: Compound was tested for presynaptic agonistic activity against dopamine receptor in limbic system; Inactive; assay type: functional, tissue-based

SMILES | Dose (Rattus norvegicus [1]) | Acc. counts (Rattus norvegicus [2]) | also measured
CCCN1CCC[C@@H](c2ccc(O)c(O)c2)C1 | 50 µM/kg | 24 | 
CN1CCCC2c3cc(O)ccc3CCC21 (configuration not stated) | 106 µM/kg | 60 | 
CN1CCCC2c3cccc(O)c3CCC21 (configuration not stated) | 100 µM/kg | 40 | 
CCCN1CCC[C@H]2c3cccc(O)c3CC[C@@H]21 | 1.3 µM/kg | 62 | 
Oc1cccc2c1CCC(N1CCCCC1)C2 (configuration not stated) |  |  | ED50 [3]: inactive; ED50 [4]: inactive
Oc1cccc2c1CC[C@@H]1NCCC[C@@H]21 | 106 µM/kg |  | Acc. counts (Rattus norvegicus [5]): 10
CN(C)C1CCc2c(O)cccc2C1 (configuration not stated) | 100 µM/kg | 52 | 
CCCN(CCC)[C@@H]1Cc2cccc(O)c2C[C@H]1C | 0.31 µM/kg | 155 | 
CCNC1CCc2c(O)cccc2C1 (configuration not stated) | 2 µM/kg | 181 | 
CCCN(CCC)[C@@H]1CCc2ccc(O)cc2C1 | 0.31 µM/kg | 46 | 
CNC1CCc2c(O)cccc2C1 (configuration not stated) | 100 µM/kg |  | Acc. counts (Rattus norvegicus [5]): 18
CCCN1CCC[C@@H]2c3cc(O)ccc3CC[C@H]21 | 1.06 µM/kg | 155 | 
CCCCNC1CCc2c(O)cccc2C1 (configuration not stated) |  |  | ED50 [6]: inactive; Dose (Rattus norvegicus [7]): inactive; ED50 [8]: inactive
CN1CCc2cccc3c2[C@H]1Cc1ccc(O)c(O)c1-3 [APOMORPHINE] | 2.3 µM/kg | 361 | 
CCCN1CCC[C@H](c2cccc(O)c2)C1 | 13 µM/kg | 78 | 
CCCN1CCC[C@@H](c2cccc(O)c2)C1 [PRECLAMOL] | 213 µM/kg | 12 | 
CCCN(C)C1CCc2c(O)cccc2C1 (configuration not stated) | 2 µM/kg | 239 | 
Oc1ccc2c(c1)C1CCCNC1CC2 (configuration not stated) | 106 µM/kg |  | Acc. counts (Rattus norvegicus [5]): 10
